Experimental data published in patent US6809065B2, “Herbicide containing substituted pyrazole derivative as active ingredient” (SDS Biotech K.K., priority 2001, dated 2004).

Legend:
[1] = test system: wheat (Triticum aestivum); test: Upland field foliage treatment (Test Example 1), crop; type: in vivo; conditions: foliage treatment 14th day after sowing, 1 kg active ingredient per hectare, evaluated 21st day, lower index = higher safety
Summary of the method: (§1)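 Weeds and crops were sown in upland soil under about 1 cm cover, and a wettable powder diluted in water was sprayed on the foliage 14 days after sowing at 1 kg active ingredient per hectare. Scoring was done 21 days after application on an index scale, where higher weed scores mean stronger herbicidal effect and lower crop scores mean greater crop safety.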

soybean (Glycine max) [2] = test: as above; type: in vivo; conditions: foliage treatment 14th day after sowing, 1 kg active ingredient per hectare, evaluated 21st day, lower index = higher safety
Summary of the method: as §1

[3] = test system: rice (Oryza sative, variety: Koshihikari); test: Paddy field treatment (Test Example 3), crop; type: in vivo, Oryza sativa; conditions: transplanted rice two-leaf period, water surface treatment 10th day after transplantation, 1 kg active ingredient per hectare, evaluated 21st day, lower index = higher safety
Summary of the method: (§2)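 Weeds sown in puddled paddy soil under 4 cm water, with two-leaf Koshihikari rice transplanted at 3 cm depth. On day 10 after transplanting, wettable powder applied to the water surface at 1 kg active ingredient per hectare. Herbicidal effect and crop safety scored on an index 21 days later.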

Scirpus juncoides = test: Paddy field treatment (Test Example 3); type: in vivo; conditions: paddy pot, submerged 4 cm, dropped on water surface 10th day after transplantation, 1 kg active ingredient per hectare, evaluated 21st day
Summary of the method: as §2

Ammannia multiflora = test: Paddy field treatment (Test Example 3); type: in vivo; conditions: paddy pot, submerged 4 cm, dropped on water surface 10th day after transplantation, 1 kg active ingredient per hectare, evaluated 21st day
Summary of the method: as §2

Monochoria vaginalis = test: Paddy field treatment (Test Example 3); type: in vivo; conditions: paddy pot, submerged 4 cm, dropped on water surface 10th day after transplantation, 1 kg active ingredient per hectare, evaluated 21st day
Summary of the method: as §2

Setaria viridis [4] = test: Upland soil treatment (Test Example 2); type: in vivo; conditions: soil surface treatment next day after sowing, wettable powder, 1 kg active ingredient per hectare, evaluated 21st day after application
Summary of the method: (§3)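 Upland soil in pots was sown with weed and crop seeds, covered with about 1 cm soil, and next day sprayed on the surface with wettable-powder formulation at 1 kg active ingredient per hectare. Effects were scored by index on day 21; higher index means stronger weed control, lower index means better crop safety.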

Chenopodium album [5] = test: Upland soil treatment (Test Example 2); type: in vivo; conditions: soil surface treatment next day after sowing, wettable powder, 1 kg active ingredient per hectare, evaluated 21st day after application
Summary of the method: as §3

Digitaria adscendens [6] = test: Upland soil treatment (Test Example 2); type: in vivo; conditions: soil surface treatment next day after sowing, wettable powder, 1 kg active ingredient per hectare, evaluated 21st day after application
Summary of the method: as §3

Stellaria media [7] = test: Upland soil treatment (Test Example 2); type: in vivo; conditions: soil surface treatment next day after sowing, wettable powder, 1 kg active ingredient per hectare, evaluated 21st day after application
Summary of the method: as §3

Setaria viridis [8] = test: Upland field foliage treatment (Test Example 1); type: in vivo; conditions: foliage treatment 14th day after sowing, wettable powder, 1 kg active ingredient per hectare, evaluated 21st day after application
Summary of the method: as §1

Chenopodium album [9] = test: Upland field foliage treatment (Test Example 1); type: in vivo; conditions: foliage treatment 14th day after sowing, wettable powder, 1 kg active ingredient per hectare, evaluated 21st day after application
Summary of the method: as §1

Digitaria adscendens [10] = test: Upland field foliage treatment (Test Example 1); type: in vivo; conditions: foliage treatment 14th day after sowing, wettable powder, 1 kg active ingredient per hectare, evaluated 21st day after application
Summary of the method: as §1

Stellaria media [11] = test: Upland field foliage treatment (Test Example 1); type: in vivo; conditions: foliage treatment 14th day after sowing, wettable powder, 1 kg active ingredient per hectare, evaluated 21st day after application
Summary of the method: as §1

Echinochloa spp. = test: Paddy field treatment (Test Example 3); type: in vivo, Echinochloa crusgalli; conditions: paddy pot, submerged 4 cm, dropped on water surface 10th day after transplantation, 1 kg active ingredient per hectare, evaluated 21st day
Summary of the method: as §2

[12] = test system: wheat (Triticum aestivum); test: Upland soil treatment (Test Example 2), crop; type: in vivo; conditions: soil surface treatment next day after sowing, 1 kg active ingredient per hectare, evaluated 21st day, lower index = higher safety
Summary of the method: as §3

soybean (Glycine max) [13] = test: Upland soil treatment (Test Example 2), crop; type: in vivo; conditions: soil surface treatment next day after sowing, 1 kg active ingredient per hectare, evaluated 21st day, lower index = higher safety
Summary of the method: as §3

SMILES	Herbicidal activity Triticum aestivum [1]	Herbicidal activity Glycine max (soybean (Glycine max) [2])	Herbicidal activity Oryza sativa [3]	Herbicidal activity Scirpus juncoides (Scirpus juncoides)	Herbicidal activity Ammannia multiflora (Ammannia multiflora)	Herbicidal activity Monochoria vaginalis (Monochoria vaginalis)	Herbicidal activity Setaria viridis (Setaria viridis [4])	Herbicidal activity Chenopodium album (Chenopodium album [5])	Herbicidal activity Digitaria adscendens (Digitaria adscendens [6])	Herbicidal activity Stellaria media (Stellaria media [7])	Herbicidal activity Setaria viridis (Setaria viridis [8])	Herbicidal activity Chenopodium album (Chenopodium album [9])	Herbicidal activity Digitaria adscendens (Digitaria adscendens [10])	Herbicidal activity Stellaria media (Stellaria media [11])	Herbicidal activity Echinochloa spp. (Echinochloa spp.)	Herbicidal activity Triticum aestivum [12]	Herbicidal activity Glycine max (soybean (Glycine max) [13])
COC=C(Cn1nc(-c2cc(Cl)cc(Cl)c2)cc1C)C(=O)OC [Compound 11]	0 (herbicidal effect of not less than 0% by weight and less than 10% by weight)	0 (herbicidal effect of not less than 0% by weight and less than 10% by weight)	0 (herbicidal effect of not less than 0% by weight and less than 10% by weight)	3 (herbicidal effect of not less than 50% by weight and less than 70% by weight)	3 (herbicidal effect of not less than 50% by weight and less than 70% by weight)	3 (herbicidal effect of not less than 50% by weight and less than 70% by weight)	4 (herbicidal effect of not less than 70% by weight and less than 90% by weight)	4 (herbicidal effect of not less than 70% by weight and less than 90% by weight)	4 (herbicidal effect of not less than 70% by weight and less than 90% by weight)	4 (herbicidal effect of not less than 70% by weight and less than 90% by weight)	4 (herbicidal effect of not less than 70% by weight and less than 90% by weight)	4 (herbicidal effect of not less than 70% by weight and less than 90% by weight)	4 (herbicidal effect of not less than 70% by weight and less than 90% by weight)	4 (herbicidal effect of not less than 70% by weight and less than 90% by weight)	3 (herbicidal effect of not less than 50% by weight and less than 70% by weight)	0 (herbicidal effect of not less than 0% by weight and less than 10% by weight)	0 (herbicidal effect of not less than 0% by weight and less than 10% by weight)
COC=C(Cn1nc(-c2cc(Cl)cc(Cl)c2)c(Cl)c1C)C(=O)OC [Compound 25]	0 (herbicidal effect of not less than 0% by weight and less than 10% by weight)	0 (herbicidal effect of not less than 0% by weight and less than 10% by weight)	0 (herbicidal effect of not less than 0% by weight and less than 10% by weight)	3 (herbicidal effect of not less than 50% by weight and less than 70% by weight)	3 (herbicidal effect of not less than 50% by weight and less than 70% by weight)	3 (herbicidal effect of not less than 50% by weight and less than 70% by weight)	4 (herbicidal effect of not less than 70% by weight and less than 90% by weight)	4 (herbicidal effect of not less than 70% by weight and less than 90% by weight)	4 (herbicidal effect of not less than 70% by weight and less than 90% by weight)	4 (herbicidal effect of not less than 70% by weight and less than 90% by weight)	4 (herbicidal effect of not less than 70% by weight and less than 90% by weight)	4 (herbicidal effect of not less than 70% by weight and less than 90% by weight)	4 (herbicidal effect of not less than 70% by weight and less than 90% by weight)	4 (herbicidal effect of not less than 70% by weight and less than 90% by weight)	3 (herbicidal effect of not less than 50% by weight and less than 70% by weight)	0 (herbicidal effect of not less than 0% by weight and less than 10% by weight)	0 (herbicidal effect of not less than 0% by weight and less than 10% by weight)
COC=C(Cn1nc(-c2ccccc2Cl)cc1C)C(=O)OC [Compound 4]	0 (herbicidal effect of not less than 0% by weight and less than 10% by weight)	0 (herbicidal effect of not less than 0% by weight and less than 10% by weight)	0 (herbicidal effect of not less than 0% by weight and less than 10% by weight)	4 (herbicidal effect of not less than 70% by weight and less than 90% by weight)	3 (herbicidal effect of not less than 50% by weight and less than 70% by weight)	5 (herbicidal effect of not less than 90% by weight)	4 (herbicidal effect of not less than 70% by weight and less than 90% by weight)	4 (herbicidal effect of not less than 70% by weight and less than 90% by weight)	4 (herbicidal effect of not less than 70% by weight and less than 90% by weight)	4 (herbicidal effect of not less than 70% by weight and less than 90% by weight)	4 (herbicidal effect of not less than 70% by weight and less than 90% by weight)	5 (herbicidal effect of not less than 90% by weight)	4 (herbicidal effect of not less than 70% by weight and less than 90% by weight)	4 (herbicidal effect of not less than 70% by weight and less than 90% by weight)	4 (herbicidal effect of not less than 70% by weight and less than 90% by weight)	0 (herbicidal effect of not less than 0% by weight and less than 10% by weight)	0 (herbicidal effect of not less than 0% by weight and less than 10% by weight)
COC=C(Cn1nc(-c2cc(Cl)cc(Cl)c2)c(Br)c1C)C(=O)OC [Compound 32]	0 (herbicidal effect of not less than 0% by weight and less than 10% by weight)	0 (herbicidal effect of not less than 0% by weight and less than 10% by weight)	0 (herbicidal effect of not less than 0% by weight and less than 10% by weight)	3 (herbicidal effect of not less than 50% by weight and less than 70% by weight)	3 (herbicidal effect of not less than 50% by weight and less than 70% by weight)	3 (herbicidal effect of not less than 50% by weight and less than 70% by weight)	4 (herbicidal effect of not less than 70% by weight and less than 90% by weight)	4 (herbicidal effect of not less than 70% by weight and less than 90% by weight)	4 (herbicidal effect of not less than 70% by weight and less than 90% by weight)	4 (herbicidal effect of not less than 70% by weight and less than 90% by weight)	4 (herbicidal effect of not less than 70% by weight and less than 90% by weight)	4 (herbicidal effect of not less than 70% by weight and less than 90% by weight)	4 (herbicidal effect of not less than 70% by weight and less than 90% by weight)	4 (herbicidal effect of not less than 70% by weight and less than 90% by weight)	3 (herbicidal effect of not less than 50% by weight and less than 70% by weight)	0 (herbicidal effect of not less than 0% by weight and less than 10% by weight)	0 (herbicidal effect of not less than 0% by weight and less than 10% by weight)
